Laboratory results published in paper PMC7395068, “The evolution of strategies to minimise the risk of human drug-induced liver injury (DILI) in drug discovery and development” (Archives of Toxicology, 2020).
Read-outs that look alike come from different tables or passages of the source.

Tests used:
[1] = plasma free fraction; cited from earlier work
[2] = test system: isolated mouse liver mitochondria; conditions: In vitro Assay; ref Porceddu 2012; cited from earlier work
hLiMTs [3] = conditions: cited from earlier work
[4] = cited from earlier work
hLiMTs [5] = assay: Combined HCI (HCS) and cellular ATP 3D assay in hLiMTs; conditions: for AC50 / minimal effective concentration: Homo sapiens; for DILI prediction hLiMTs (HCS-MEC): Microtissue model structural based (HCI), combined HCS and ATP, MEC < 25 × Cmax.tot cut-off; for hLiMTs <25x Avg Cmax ATP / hLiMTs <100x Avg Cmaxu ATP: ATP endpoint; for hLiMTs <25x Avg Cmax ATP / hLiMTs <25x Avg Cmax HCS / hLiMTs <25x Avg Cmax All: cut-off <25x Avg Cmax; for hLiMTs <100x Avg Cmaxu ATP / hLiMTs <100x Avg Cmaxu HCS / hLiMTs <100x Avg Cmaxu All: cut-off <100x Avg Cmaxu; for hLiMTs <25x Avg Cmax HCS / hLiMTs <100x Avg Cmaxu HCS: HCS endpoints; for hLiMTs <25x Avg Cmax All: all endpoints (ATP and HCS); for hLiMTs Cmax max All / hLiMTs Cmax min All / hLiMTs <10 uM All / hLiMTs <100x Avg Cmaxu All: all endpoints; for hLiMTs Cmax max All: Cmax max used; for hLiMTs Cmax min All: Cmax min used; for hLiMTs <10 uM All: cut-off <10 uM
Experimental: 3D spheroid models consisting of either primary human hepatocytes with non-parenchymal cells (hLiMT’s) or HepaRG cells (HepaRG spheroids) were assessed for size (MS), oxidative stress (OS), MMP, mitochondrial mass (MM), GSH and cellular ATP content following drug exposure. Fluorescent images are acquired using the confocal mode of an ArrayScan™ XTI HCI reader (ThermoScientific) following which cellular ATP was measured using 3D CellTiter-Glo (Promega).

HepaRG spheroids = assay: Combined HCI (HCS) and cellular ATP 3D assay in HepaRG spheroids; conditions: for HepaRG <25x Avg Cmax ATP / HepaRG <100x Avg Cmaxu ATP: ATP endpoint; for HepaRG <25x Avg Cmax ATP / HepaRG <25x Avg Cmax HCS / HepaRG <25x Avg Cmax All: cut-off <25x Avg Cmax; for HepaRG <100x Avg Cmaxu ATP / HepaRG <100x Avg Cmaxu HCS / HepaRG <100x Avg Cmaxu All: cut-off <100x Avg Cmaxu; for HepaRG <25x Avg Cmax HCS / HepaRG <100x Avg Cmaxu HCS: HCS endpoints; for HepaRG <25x Avg Cmax All: all endpoints (ATP and HCS); for HepaRG Cmax max All / HepaRG Cmax min All / HepaRG <10 uM All / HepaRG <100x Avg Cmaxu All: all endpoints; for HepaRG Cmax max All: Cmax max used; for HepaRG Cmax min All: Cmax min used; for HepaRG <10 uM All: cut-off <10 uM; for AC50 / minimal effective concentration: Homo sapiens; for HepaRG <25x Avg Cmax ATP / HepaRG <100x Avg Cmaxu ATP / HepaRG <25x Avg Cmax HCS / HepaRG <100x Avg Cmaxu HCS / HepaRG <25x Avg Cmax All / HepaRG Cmax max All / HepaRG Cmax min All / HepaRG <10 uM All / HepaRG <100x Avg Cmaxu All / AC50 / minimal effective concentration: HepaRG; for DILI prediction HepaRG spheroids (HCS-MEC): Microtissue model structural based (HCI), combined HCS and ATP, MEC < 25 × Cmax.tot cut-off
PHH = conditions: cited from earlier work
[6] = test system: HepG2 cells, primary human hepatocytes; conditions: In vitro Assay; ref Garside 2014; cited from earlier work
[7] = ref Chen 2011; cited from earlier work
[8] = Plasma free fraction (fu) and unbound Cmax (Cmax,u); type: in vitro ADME, human; conditions: unbound plasma Cmax
Experimental: The prediction of DILI severity was evaluated further using the 3D combined HCI assays using plasma-free fraction. The majority of fu values were obtained from literature, when unavailable in-house prediction was utilised. Unbound plasma Cmax concentrations (Cmax,u) were derived by multiplying total plasma Cmax with the corresponding free fraction (fu) for each compound.

[9] = test system: HepG2 C3A spheroid, BSEP, Glu/Gal in HepG2 cells, bioactivation; conditions: cited from earlier work
[10] = test system: THLE or HepG2 cells, isolated mitochondria, BSEP; conditions: cited from earlier work
[11] = cited from earlier work; remark: listed apart in the source
[12] = test system: primary human hepatocytes, NIH3T3 fibroblasts, BSEP, CYP3A4; conditions: cited from earlier work
[13] = read-out: Human plasma Cmax; total plasma Cmax.tot, median of 9 literature references; cited from earlier work
[14] = In vitro Assay, ref Proctor 2017
[15] = Modeled in vitro assays (cytotoxicity, mitochondrial dysfunction, BSEP), ref Aleo et al. 2019
[16] = In vitro Assay, ref Schadt 2015

For `CCN(CC)CCNC(=O)c1c(C)[nH]c(/C=C2\C(=O)Nc3ccc(F)cc32)c1C` [sunitinib], the fu [1] is given as 0.050, the “in vitro data EC2<=1x Cmax” value [2] is given as “+VE” and the “in vitro data EC20<=2uM” value [2] is given as “-VE”. For the same molecule, the “hLiMTs ATP <100uM” value (hLiMTs [3]; [14]) was “+VE (IC50 threshold of 100 µM)”, the “hLiMTs/100xCmax, Proctor (2017)” value (hLiMTs [3]; hLiMTs, ATP, IC50 < 100 × Cmax.tot, ref Proctor et al. 2017) was “+VE (IC50 < 100 × Cmax.tot)” and the “hLiMTs/100uM, Proctor (2017)” value (hLiMTs [3]; hLiMTs, ATP, IC50 threshold 100 µM, ref Proctor et al. 2017) was “+VE (IC50 threshold of 100 µM)”. The “DILI severity category (Chen et al. [2016])” value ([4]; LTKB DILIrank category, ref Chen et al. 2016) was “Most”, the “DILI severity category (Chen 2016)” value ([4]; human DILI classification, LTKB DILIrank, ref Chen et al. 2016) was “Most” and the DILI severity category ([4]; human DILI severity, ref Chen et al.) was “Most”. The “DILI +VE (5-8), DILI -VE (-4)” value ([4]; ref Chen 2016) was “+VE”, the DILI severity category ([4]; ref Chen 2016) was “vMost-DILI-Concern” and the AC50 (hLiMTs [5]; read-out: ATP endpoint AC50) was 400 nM. It also gave a minimal effective concentration (hLiMTs [5]; read-out: ATP endpoint MEC) of 0.347 µM, an AC50 (hLiMTs [5]; read-out: HCS endpoint AC50) of 421 nM and a minimal effective concentration (hLiMTs [5]; read-out: HCS endpoint MEC) of 0.157 µM. For the same molecule, the “DILI prediction hLiMTs (HCS-MEC)” value (hLiMTs [5]) was “+VE (MEC < 25 × Cmax.tot cut-off)”, the “hLiMTs <25x Avg Cmax ATP” value (hLiMTs [5]) was “+ve” and the “hLiMTs <100x Avg Cmaxu ATP” value (hLiMTs [5]) was “-ve”. For the same molecule, the “hLiMTs <25x Avg Cmax HCS” value (hLiMTs [5]) was “+ve”, the “hLiMTs <100x Avg Cmaxu HCS” value (hLiMTs [5]) was “+ve (<100x Avg Cmaxu)” and the “hLiMTs <25x Avg Cmax All” value (hLiMTs [5]) was “+ve”. The “hLiMTs Cmax max All” value (hLiMTs [5]) was “+ve”, the “hLiMTs Cmax min All” value (hLiMTs [5]) was “+ve” and the “hLiMTs <10 uM All” value (hLiMTs [5]) was “+ve (<10 uM)”. For the same molecule, the “hLiMTs <100x Avg Cmaxu All” value (hLiMTs [5]) was “+ve (<100x Avg Cmaxu)”, the “HepaRG <25x Avg Cmax ATP” value (HepaRG spheroids) was “+ve” and the “HepaRG <100x Avg Cmaxu ATP” value (HepaRG spheroids) was “-ve”. The “HepaRG <25x Avg Cmax HCS” value (HepaRG spheroids) was “+ve”, the “HepaRG <100x Avg Cmaxu HCS” value (HepaRG spheroids) was “+ve (<100x Avg Cmaxu)” and the “HepaRG <25x Avg Cmax All” value (HepaRG spheroids) was “+ve”. The “HepaRG Cmax max All” value (HepaRG spheroids) was “+ve”, the “HepaRG Cmax min All” value (HepaRG spheroids) was “+ve” and the “HepaRG <10 uM All” value (HepaRG spheroids) was “+ve (<10 uM)”. For the same molecule, the “HepaRG <100x Avg Cmaxu All” value (HepaRG spheroids) was “+ve (<100x Avg Cmaxu)”, the AC50 (HepaRG spheroids; read-out: ATP endpoint AC50) was 3110 nM and the minimal effective concentration (HepaRG spheroids; read-out: ATP endpoint MEC) was 1.1 µM. For the same molecule, the AC50 (HepaRG spheroids; read-out: HCS endpoint AC50) was 1710 nM, the minimal effective concentration (HepaRG spheroids; read-out: HCS endpoint MEC) was 0.281 µM and the “DILI prediction HepaRG spheroids (HCS-MEC)” value (HepaRG spheroids) was “+VE (MEC < 25 × Cmax.tot cut-off)”. For the same molecule, the “PHH/100xCmax, Proctor (2017)” value (PHH; 2D PHH, ATP, IC50 < 100 × Cmax.tot, ref Proctor et al. 2017) was “+VE (IC50 < 100 × Cmax.tot)”, the “PHH/100uM, Proctor (2017)” value (PHH; 2D PHH, ATP, IC50 threshold 100 µM, ref Proctor et al. 2017) was “+VE (IC50 threshold of 100 µM)” and the “PHH ATP <100uM” value (PHH; [14]) was “+VE (IC50 threshold of 100 µM)”. The “Cluster 1-6 +VE Assay” value [6] was “+VE”, the “DILI Score (FDA) (1-8)” value [7] was 8 and the “Human plasma Cmax,u” value [8] was 3 nM. The “Bayesian Machine Learning DILI prediction, Williams (2019)” value ([9]; Bayesian modeling, ref Williams et al. 2019) was “+VE”, the “Bayesian Machine Learning” value ([9]; In vitro Assay, ref Williams 2019) was “+VE” and the “Partition Hybrid HRM Score” value ([10]; In vitro Assay, ref Aleo 2019) was “-VE”. The “Ro2 Hybrid HRM Score” value ([10]; In vitro Assay, ref Aleo 2019) was “-VE”, the “Partition Hybrid HRM Score ≥4, Aleo (2019)” value [10, 15] was “+VE (Partition Hybrid HRM Score ≥4)” and the “Partition Hybrid HRM Score ≥8, Aleo (2019)” value [10, 15] was “-VE”. For the same molecule, the “Rule of Two hybrid HRM Score ≥3, Aleo (2019)” value [10, 15] was “-VE”, the “Rule of Two hybrid HRM Score ≥8, Aleo (2019)” value [10, 15] was “-VE” and the “Assigned DILI category” value ([11]; Chen et al. 2016 or literature alignment, ref Chen et al. 2016) was 3. For the same molecule, the “In vivo DILI” value ([11]; ref Aleo 2019) was “+VE”, the “In vivo DILI” value ([11]; ref Garside 2014) was “+VE” and the “In vivo DILI” value ([11]; ref Porceddu 2012) was “+VE”. For the same molecule, the “In vivo DILI” value ([11]; ref Proctor 2017) was “+VE” and the “In vivo DILI” value ([11]; ref Williams 2019) was “+VE”.

In the case of `CCOC(=O)CN[C@@H](C(=O)N1CC[C@H]1C(=O)NCc1ccc(/C(N)=N\O)cc1)C1CCCCC1` [ximelagatran], the “DILI in vitro assay prediction, Schadt (2015)” value ([12]; BSEP & Metabolism based, ref Schadt et al. 2015) is given as “-VE”, the “Cellular toxicity (3T3 cells)” value [12, 16] is given as “-VE” and the “Combined Assay” value [12, 16] is given as “-VE”. For the same molecule, the “GSH adduct HML” value [12, 16] was “-VE”, the Hepatocyte cellular toxicity [12, 16] was “-VE” and the “MitoTox 3T3” value [12, 16] was “-VE”. The “TDI CYP3A4” value [12, 16] was “-VE”, the hBSEP inhibition [12, 16] was “-VE” and the fu [1] was 0.210. For the same molecule, the “in vitro data EC2<=1x Cmax” value [2] was “-VE”, the minimal effective concentration (hLiMTs [5]; read-out: ATP endpoint MEC) was 61.8 µM and the “DILI prediction hLiMTs (HCS-MEC)” value (hLiMTs [5]) was “-VE”. The “hLiMTs <25x Avg Cmax ATP” value (hLiMTs [5]) was “-ve”, the “hLiMTs <100x Avg Cmaxu ATP” value (hLiMTs [5]) was “-ve” and the “hLiMTs <25x Avg Cmax HCS” value (hLiMTs [5]) was “-ve”. The “hLiMTs <100x Avg Cmaxu HCS” value (hLiMTs [5]) was “-ve”, the “hLiMTs <25x Avg Cmax All” value (hLiMTs [5]) was “-ve” and the “hLiMTs Cmax max All” value (hLiMTs [5]) was “-ve”. For the same molecule, the “hLiMTs Cmax min All” value (hLiMTs [5]) was “-ve”, the “hLiMTs <10 uM All” value (hLiMTs [5]) was “-ve” and the “hLiMTs <100x Avg Cmaxu All” value (hLiMTs [5]) was “-ve”. For the same molecule, the “HepaRG <25x Avg Cmax ATP” value (HepaRG spheroids) was “-ve”, the “HepaRG <100x Avg Cmaxu ATP” value (HepaRG spheroids) was “-ve” and the “HepaRG <25x Avg Cmax HCS” value (HepaRG spheroids) was “-ve”. For the same molecule, the “HepaRG <100x Avg Cmaxu HCS” value (HepaRG spheroids) was “-ve”, the “HepaRG <25x Avg Cmax All” value (HepaRG spheroids) was “-ve” and the “HepaRG Cmax max All” value (HepaRG spheroids) was “-ve”. For the same molecule, the “HepaRG Cmax min All” value (HepaRG spheroids) was “-ve”, the “HepaRG <10 uM All” value (HepaRG spheroids) was “-ve” and the “HepaRG <100x Avg Cmaxu All” value (HepaRG spheroids) was “-ve”. For the same molecule, the minimal effective concentration (HepaRG spheroids; read-out: ATP endpoint MEC) was 149 µM, the minimal effective concentration (HepaRG spheroids; read-out: HCS endpoint MEC) was 133 µM and the “DILI prediction HepaRG spheroids (HCS-MEC)” value (HepaRG spheroids) was “-VE”. The “Human plasma Cmax,u” value [8] was 80 nM and the Cmax [13] was 380 nM.
